# Like-named read-outs stand apart in the source and are kept apart here.
# What was measured:
# [1] = system: TLR2 induced IL-6 in peripheral blood mononuclear cells (PBMCs); assay: PBMC TLR2 Induced IL-6 Assay; format: cell-based, human; details: human PBMCs, 10 μg/ml lipoteichoic acid for 5 hours, IL-6 by ELISA; for EC50: EC50 determinations are indicated with an asterisk, read-out: Cell EC50 (asterisk); for IC50: value without asterisk, read-out: Cell IC50
# How it was run: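 IL-6 ELISA of supernatants after a 5 h challenge with the TLR2 agonist lipoteichoic acid (10 μg/ml). Before stimulation, human PBMCs (250000 cells/well; RPMI, 10% heat-inactivated FCS) received compound for 30 min at 37° C. Values given as IC50 or EC50.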
# IRAK4 = IRAK4 (Homo sapiens (Human), UniProt Q9NWZ3); assay: IRAK4 Inhibition Assay; format: biochemical; details: ATP 500 μM; IRAK4 0.6 nM; 60 min at room temperature
# Method: The assays were performed in U-bottom 384-well plates. […] The reaction was initiated by the combination of IRAK4 with substrates and test compounds. The reaction was incubated at room temperature for 60 min. and terminated by adding 45 μL of 35 mM EDTA to each sample. The reaction mixture was analyzed on the Caliper LABCHIP® 3000 (Caliper, Hopkinton, Mass.) by electrophoretic separation of the fluorescent substrate and phosphorylated product.
# IRAK4, sequence (Q9NWZ3 whole entry, species assumed): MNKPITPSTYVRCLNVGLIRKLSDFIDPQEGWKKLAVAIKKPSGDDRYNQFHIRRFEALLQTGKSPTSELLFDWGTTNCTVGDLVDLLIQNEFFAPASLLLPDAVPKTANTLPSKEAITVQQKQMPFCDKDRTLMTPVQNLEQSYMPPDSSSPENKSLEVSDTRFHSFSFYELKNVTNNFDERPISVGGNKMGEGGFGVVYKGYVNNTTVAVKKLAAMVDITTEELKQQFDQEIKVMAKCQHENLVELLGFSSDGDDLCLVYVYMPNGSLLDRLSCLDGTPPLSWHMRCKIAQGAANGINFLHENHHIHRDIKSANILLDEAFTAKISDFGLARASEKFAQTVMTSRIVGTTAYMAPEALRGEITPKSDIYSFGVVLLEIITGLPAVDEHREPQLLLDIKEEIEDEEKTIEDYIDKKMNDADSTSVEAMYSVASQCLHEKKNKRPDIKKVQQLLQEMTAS
SMILES,IC50 (IRAK4),"EC50 ([1]; Homo sapiens, PBMC, 5 h)",IC50 [1],"IC50 ([1]; Homo sapiens, PBMC, 5 h)"
CC(C)Nc1cc(Nc2cc(F)c3ncsc3c2)ncc1C(=O)NC[C@@H](F)C(C)(C)O [Example 120],5.9 nM,–,–,459 nM
"CNC(=O)c1cnc(Nc2ccc3c(c2)C(F)(F)C(=O)N3)cc1NC1CCCC1 [Example 1, 4-(cyclopentylamino)-6-(3,3-difluoro-2-oxoindolin-5-ylamino)-N-methylnicotinamide]",4.4 nM,–,–,612 nM
CCCCNc1cc(Nc2ccc3ncsc3c2)ncc1C(=O)NC[C@@H](F)C(C)(C)O [Example 160],4.8 nM,–,–,109 nM
CC(C)(C)CNc1cc(Nc2ccc3nccnc3c2)ncc1C(=O)NC[C@@H](F)C(C)(C)O [Example 103],13.4 nM,–,–,411 nM
Cc1cc(O)ccc1Nc1cc(Nc2ccc3ncsc3c2)ncc1C(=O)NC[C@@H](F)C(C)(C)O [Example 86],11.4 nM,–,–,281 nM
CC(C)NC(=O)N[C@@H](C)CCNC(=O)c1cnc(Nc2ccc3ncsc3c2)cc1NC(C)C [Example 181],7.6 nM,–,–,453 nM
"CC(C)Nc1cc(Nc2ccc3ncsc3c2)ncc1C(=O)NC[C@@H](F)CO [Example 5, (R)-6-(benzo[d]thiazol-6-ylamino)-N-(2-fluoro-3-hydroxypropyl)-4-(isopropylamino)nicotinamide]",9.6 nM,–,–,484 nM
CC(C)(O)[C@H](F)CNC(=O)c1cnc(Nc2ccc3ncsc3c2)cc1NC1CCCOC1 (stereo partly shown) [Example 54],3.6 nM,–,258 nM,–
CC(C)Nc1cc(Nc2ccc3ncsc3c2)ncc1C(=O)NC[C@@H](F)C(C)(C)O [Example 35],2.6 nM,–,–,482 nM
"CC1(O)CCC(NC(=O)c2cnc(Nc3ccc4ncsc4c3)cc2NC2CC2)CC1 (stereo not shown) [Example 169, 6-(benzo[d]thiazol-6-ylamino)-4-(cyclopropylamino)-N-(4-hydroxy-4-methylcyclohexyl)nicotinamide]",2.8 nM,–,–,480 nM

# Continued, in another order:
IC50 (IRAK4),SMILES,"EC50 ([1]; Homo sapiens, PBMC, 5 h)",IC50 [1],"IC50 ([1]; Homo sapiens, PBMC, 5 h)"
10.3 nM,Cc1cn2nccc2nc1Nc1cc(NC2CCOCC2)c(C(=O)NC[C@@H](F)C(C)(C)O)cn1 [Example 482],251 nM,–,–
2.4 nM,CC(C)C(O)[C@H](F)CNC(=O)c1cnc(Nc2ccc3ncsc3c2)cc1N[C@@H]1CCC[C@H]1O (stereo partly shown) [Example 331],–,163 nM,–
2.2 nM,CC(=O)N[C@H]1CC[C@H](NC(=O)c2cnc(Nc3ccc4ncsc4c3)cc2NC(C)C)CC1 [Example 200],–,–,94 nM
2.7 nM,CC(C)(O)[C@H](F)CNC(=O)c1cnc(Nc2ccc3ncc(C#N)cc3n2)cc1NC1CCC(F)(F)C1 (stereo partly shown) [Example 407],–,260 nM,–
2.6 nM,CC(C)Nc1cc(Nc2ccc3ncsc3c2)ncc1C(=O)N[C@H]1CC[C@H](NS(C)(=O)=O)CC1 [Example 204],–,–,252 nM
3.3 nM,CCNC(=O)[C@H]1CC[C@H](NC(=O)c2cnc(Nc3ccc4ncsc4c3)cc2NC(C)C)CC1 [Example 225],–,–,535 nM
9.4 nM,CC(=O)N[C@H]1CC[C@H](NC(=O)c2cnc(Nc3nc4ccnn4cc3F)cc2NC2CCOCC2)CC1 [Example 513],–,–,1570 nM
2.8 nM,CC(C)(O)[C@H](F)CNC(=O)c1cnc(Nc2ccc3nccn3n2)cc1NC1CCCC1F (stereo partly shown) [Example 274],–,712 nM,–
5.3 nM,CC(C)(O)[C@H](F)CNC(=O)c1cnc(Nc2nc3ccnn3cc2F)cc1NC1CC1 [Example 368],–,445 nM,–
2.1 nM,CC(C)NC(=O)N[C@H]1CC[C@H](NC(=O)c2cnc(Nc3ccc4ncsc4c3)cc2NC(C)C)CC1 [Example 206],–,–,139 nM
3.4 nM,CC(C)Nc1cc(Nc2ccc3ncsc3c2)ncc1C(=O)NCC[C@@H](C)NC(=O)CCCCC(C)(C)O [Example 191],–,–,451 nM
9 nM,CC(C)Nc1cc(Nc2ccc3ncsc3c2)ncc1C(=O)NCCN1CCOCC1 [Example 402],–,–,357 nM
4.8 nM,CC(CCF)Nc1cc(Nc2nc3ccnn3cc2F)ncc1C(=O)NC[C@@H](F)C(C)(C)O (stereo partly shown) [Example 502],144 nM,–,–
